From PubChem BioAssay (NCI)
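Following 48 hours of exposure in 96-well plates, responses at five concentrations were used to interpolate endpoints linearly. GI50 marks 50% less growth. The concentration for full growth arrest is given as TGI.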

Tests used:
Experiment in all cases: inhibition of tumour cell growth, NCI panel, 48 h
NCI-H23 lung = tested on: NCI-H23 lung
RPMI-8226 leukemia = tested on: RPMI-8226 leukemia
MCF7 breast = tested on: MCF7 breast
U251 CNS = tested on: U251 CNS
SK-MEL-2 melanoma = tested on: SK-MEL-2 melanoma
OVCAR-5 ovarian = tested on: OVCAR-5 ovarian
COLO 205 colon = tested on: COLO 205 colon
NCI-H522 lung = tested on: NCI-H522 lung
MDA-MB-231 breast = tested on: MDA-MB-231 breast
SR leukemia = tested on: SR leukemia

| Compound | GI50 (NCI-H23 lung) | TGI (NCI-H23 lung) | GI50 (RPMI-8226 leukemia) | TGI (RPMI-8226 leukemia) | GI50 (MCF7 breast) | TGI (MCF7 breast) | GI50 (U251 CNS) | TGI (U251 CNS) | GI50 (SK-MEL-2 melanoma) | TGI (SK-MEL-2 melanoma) | GI50 (OVCAR-5 ovarian) | TGI (OVCAR-5 ovarian) | GI50 (COLO 205 colon) | TGI (COLO 205 colon) | GI50 (NCI-H522 lung) | TGI (NCI-H522 lung) | GI50 (MDA-MB-231 breast) | TGI (MDA-MB-231 breast) | GI50 (SR leukemia) | TGI (SR leukemia) |
| --- | --- | --- | --- | --- | --- | --- | --- | --- | --- | --- | --- | --- | --- | --- | --- | --- | --- | --- | --- | --- |
| CS[C@@]1(C(=O)Nc2ccc3[nH]nc(-c4ccc(OC(C)C)nc4)c3c2)CCN(CC(=O)N2CC=C(c3ccc(-c4ncn(C)n4)cc3)CC2)C1 | 0.16 µM | > 100 µM | 2.21 µM | > 100 µM | 13.9 µM | > 100 µM | 1.65 µM | > 100 µM | 0.0571 µM | 1.11 µM | 0.131 µM | > 100 µM | 0.0178 µM | > 100 µM | > 51.2 µM | > 100 µM | 0.38 µM | > 100 µM | 4.35 µM | 63.6 µM |
| Oc1[nH]c2ccc(Cl)cc2c1/C=c1/ccc2c(c1)N=C(c1cc(F)cc(F)c1)N=2 | 5.01 µM | > 100 µM | 3.31 µM | > 100 µM | – | – | – | – | 3.24 µM | 8.52 µM | > 100 µM | > 100 µM | 4.28 µM | > 100 µM | 2.14 µM | 5.74 µM | 3.85 µM | > 100 µM | 2.98 µM | 7.95 µM |
| C[C@@H](Oc1cc(-c2cnn(C3CC4(CCCNC4)C3)c2)cnc1N)c1c(Cl)ccc(F)c1Cl (stereo not given in full) | 1.14 µM | 3.41 µM | 1.9 µM | 5.05 µM | 0.363 µM | 1.85 µM | 1.41 µM | 3.43 µM | 1.69 µM | 3.24 µM | 1.29 µM | 4.93 µM | 0.384 µM | 1.5 µM | 1.35 µM | 2.79 µM | 1.29 µM | 3.11 µM | 0.0827 µM | 1.41 µM |
| N#CC[C@H](C1CCCC1)n1cc(-c2ncnc3[nH]ccc23)cn1 | 19.6 µM | 75.7 µM | 36 µM | > 100 µM | 17.6 µM | > 86.8 µM | 32.5 µM | > 100 µM | 30.5 µM | 78.2 µM | 26.7 µM | > 78.5 µM | 24.6 µM | 67.1 µM | 21 µM | 57.9 µM | 23.9 µM | > 100 µM | 4.04 µM | 41.6 µM |
| O=C(/C=C/c1cccc(B(O)O)c1)c1cccc(B(O)O)c1 | 1.81 µM | 4.44 µM | 2.25 µM | 5.68 µM | 0.742 µM | 7.58 µM | 0.406 µM | 1.52 µM | 2.26 µM | 5.2 µM | 2.17 µM | 4.87 µM | 1.76 µM | 3.45 µM | 1.51 µM | 3.02 µM | 1.58 µM | 3.17 µM | 0.314 µM | 1.65 µM |
| CCN1C(=O)N(CC)C2C1NN=c1s/c(=C\c3ccccc3)c(=O)n12 (stereo not given) | 0.544 µM | > 100 µM | 0.389 µM | > 72.4 µM | 0.0463 µM | > 100 µM | 0.316 µM | > 100 µM | – | > 100 µM | 0.498 µM | > 100 µM | 0.193 µM | 0.657 µM | 0.11 µM | – | 0.416 µM | > 100 µM | 0.0531 µM | > 49.2 µM |
| CC(C)N(C[C@H]1O[C@@H](n2cnc3c(N)ncnc32)[C@H](O)[C@@H]1O)C1CC(CCc2nc3ccc(C(C)(C)C)cc3[nH]2)C1 (stereo not given in full) | > 100 µM | > 100 µM | 46 µM | > 100 µM | 33.2 µM | > 100 µM | > 100 µM | > 100 µM | > 69 µM | > 100 µM | > 46.9 µM | > 100 µM | 38.5 µM | > 100 µM | > 75.9 µM | > 100 µM | 69.8 µM | > 100 µM | – | – |
| CCOC(=O)C(Cc1ccc(OC)cc1)C(=O)OCC | 3.63 µM | 14.9 µM | 3.05 µM | 14.3 µM | 3.03 µM | 13.8 µM | 4.79 µM | 17.9 µM | 2.64 µM | 8.66 µM | 11.4 µM | 24.2 µM | 7.23 µM | 19.7 µM | 2.53 µM | 8.73 µM | 7.87 µM | 27.3 µM | 1.88 µM | 5.38 µM |
| Cc1c(N2C(=O)/C(=C\c3ccc(N(C)C)cc3)N=C2c2ccccc2)c(=O)n(-c2ccccc2)n1C | > 92.2 µM | > 100 µM | 25.6 µM | > 92 µM | 25.7 µM | > 100 µM | > 92.4 µM | > 100 µM | > 100 µM | > 100 µM | > 90.1 µM | > 100 µM | 43.7 µM | > 100 µM | 67.8 µM | > 100 µM | > 82.9 µM | > 100 µM | 58.8 µM | > 100 µM |
| Nc1cccc2nsnc12 | – | > 100 µM | – | > 86.9 µM | – | > 100 µM | – | > 100 µM | – | > 100 µM | – | > 100 µM | – | > 100 µM | – | > 52.2 µM | – | > 100 µM | – | > 63.5 µM |
| CN1CCN(c2ccc3nc4c(nc3c2C(F)(F)F)C(=O)c2ncccc2C4=O)CC1 | 0.365 µM | 1.91 µM | 2.37 µM | 7.59 µM | 0.316 µM | 2.09 µM | 1.38 µM | 4.04 µM | 2.05 µM | 4.34 µM | – | – | 1.45 µM | 3.29 µM | 1.16 µM | 3.55 µM | 2.54 µM | 7 µM | 0.446 µM | > 100 µM |
| CC[C@H](C)[C@H](NC(=O)C12CC(NC(C)=O)(C1)C2)C(=O)N(C)[C@H](C[C@@H](OC(C)=O)c1nc(C(=O)N[C@@H](Cc2ccccc2)C[C@H](C)C(=O)OC)cs1)C(C)C | 0.65 µM | > 16.7 µM | 0.0585 µM | > 3.64 µM | 0.0489 µM | > 16.7 µM | 0.433 µM | > 16.7 µM | 0.108 µM | > 16.7 µM | > 3.89 µM | > 16.7 µM | 0.0991 µM | 1.06 µM | 0.0551 µM | 0.45 µM | 0.439 µM | > 16.7 µM | 0.0336 µM | > 16.7 µM |
